{
  "source": "paper PMC4521150",
  "about": "“Discovery of Novel Inhibitors and Fluorescent Probe Targeting NAMPT” (Scientific Reports, 2015)",
  "key": {"[1]": {"tested_on": "Huh-7 cell", "experiment": "Cell viability in Huh-7 cells", "type": "cell-based, human", "conditions": "Huh-7, Figure S2", "text": "However, IC50 values for other 5 fluorescent compounds were able to be determined (Supplemental dataset S2). We then measured the fluorescence of all 9 fluorescent compounds at a series of different concentrations."}, "[2]": {"tested_on": "HepG2 cells", "experiment": "Live cell fluorescence imaging of compounds in HepG2 cells", "type": "cell-based, human", "conditions": "3 μM", "method": "NAMPT knockdown in HepG2 cells was performed by transfection of NAMPT siRNA synthesized by Shanghai GenePharma Co., Ltd (Shanghai, China). The siRNA sequence targeting NAMPT corresponded to coding regions (5′-[…]-3′, 5′-[…]-3′) of the NAMPT gene. The nonspecific siRNA oligonucleotides (synthesized by Shanghai GenePharma Co., Ltd, Shanghai, China) were used as negative controls. 10 nM of NAMPT siRNA or nonspecific siRNA were transfected into HepG2 cells with Lipofectamine RNAiMax reagent (Invitrogen, CA, USA) according to the manufacturer’s instructions. After 24 or 48 hours, transfected cells were subjected to subsequent analysis.\n(§1) For imaging experiment, HepG2 cells or primary hepatocytes were seeded into 35-mm glass bottom dishes (In Vitro Scientific). The following day, compounds were added to the medium at a final concentration of 3 μM. After 30 minutes, cells were rinsed twice with PBS (pH 7.5), then incubated in fresh culture medium and imaged on a fluorescence microscope (IX-71, Olympus) with a digital camera (Olympus). After 4 hours, these cells were imaged once again. Digital images were recorded and analyzed using ImageJ."}, "[3]": {"tested_on": "HepG2 cells", "experiment": "Cell viability assay (CCK-8) in HepG2 cells", "type": "cell-based, human", "conditions": "for IC50: HepG2, 48 h, CCK-8, read-out: IC50 for inhibitory effect on HepG2 cell viability", "method": "Cell viability was determined by our previous method[27] using the Cell Counting Kit-8 (CCK-8, Dojindo, Japan). In human hepatocellular carcinoma cell line HepG2, cells were seeded in 96-well plate and starved for over 12 h with serum-free DMEM at 60~70% confluency, then treated with compounds or vehicle for 48 h. To determine the IC50 values of inhibitors, compounds with various concentrations were added into the 96-well plate. 10 μl CCK-8 solution was added to the culture medium and incubated at 37 °C for 1 h. The absorbance at 450 nm (A450) was detected by a plate reader. Each experiment was carried out in triplicate in three replicate wells. The IC50 values were determined by non-linear fitting of the concentration-dependent curves with the four-parameter IC50 logistic equation."}, "[4]": {"biological_target": "T1, recombinant human NAMPT (Homo sapiens, UniProt P43490)", "T1 construct": "His tag (N); made in house; host or cells: E. coli BL21-CodonPlus (DE3)-RIL, pET21a+ vector", "T1 sequence (P43490 whole entry)": "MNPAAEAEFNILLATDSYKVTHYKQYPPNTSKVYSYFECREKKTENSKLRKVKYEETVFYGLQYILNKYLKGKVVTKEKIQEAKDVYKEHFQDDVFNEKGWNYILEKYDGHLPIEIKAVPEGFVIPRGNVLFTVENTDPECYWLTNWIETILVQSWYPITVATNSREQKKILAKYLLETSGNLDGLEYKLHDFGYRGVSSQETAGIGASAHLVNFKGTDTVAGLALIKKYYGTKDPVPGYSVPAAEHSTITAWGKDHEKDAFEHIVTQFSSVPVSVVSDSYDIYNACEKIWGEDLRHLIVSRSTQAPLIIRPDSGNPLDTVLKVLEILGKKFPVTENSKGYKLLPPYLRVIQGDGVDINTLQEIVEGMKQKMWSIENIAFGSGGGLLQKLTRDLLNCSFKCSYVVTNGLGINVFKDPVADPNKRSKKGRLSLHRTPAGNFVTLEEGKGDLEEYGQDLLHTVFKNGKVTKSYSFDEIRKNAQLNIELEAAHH", "experiment": "NAMPT activity assay, IC50 determination (fluorometric detection of NMN derivative)", "conditions": "molecular/biochemical assay, read-out: IC50 (NAMPT inhibition)", "text": "Using our previously established high throughput screening (HTS) platform and recombinant human NAMPT[14][15], we performed a HTS on a chemical library containing 30000 small-molecules (Chemdiv, CA, USA). Our HTS targeting NAMPT was developed based on a fluorometric method for NAMPT activity assay by measuring the fluorescence of nicotinamide mononucleotide (NMN) derivative resulting from the NAMPT enzymatic product NMN through simple chemical reactions (Fig. 1A). […] These fluorescent and non-fluorescent compounds were further studied separately.\nHTS was performed using our previously reported method. 0.5 μl stock of each compound (1 mM DMSO stock) was transferred to a 96-well PCR plate for screening. In the primary screening, 5 ng NAMPT in 20 μl reaction buffer [0.4 mM phosphoribosylpyrophosphate (PRPP, Sigma), 2 mM ATP, 0.02% BSA, 2 mM DTT, 12 mM MgCl2 and 50 mM Tris-HCl (pH = 7.5)] was added into each well, the plate was incubated at 37 °C for 5 min, then 4.5 μl substrate of NAM was added to initiate the enzyme reaction, resulting in a final concentration of 2% DMSO, 2 μg/ml NAMPT, 0.2 μM NAM and 20 μM compound. After reacting at 37 °C for 15 min, the enzyme reaction was terminated by heating at 95 °C for 1 min and cooling in an ice bath. The product of NMN was detected through the following approach: after adding 10 μl 20% acetophenone in DMSO and 10 μl 2 M KOH into each well, the mixture was vortex-mixed and kept in ice bath for 2 min. […] Finally, 85 μl mixtures in each well were transferred into a flat-bottom 96-well black plate (Greiner), and the fluorescence (F) was measured using a Tecan Infinity M200 plate reader (Tecan Group Ltd.) by setting the excitation and emission wavelength to 382 nm and 445 nm respectively. The last row of each 96-well plate includes six wells of background controls and six wells of reference controls. The relative enzyme activity (Activity%) regulated by specific compound was calculated according to equation (1): […]\nTo determine the IC50 of inhibitors, 0.5 μl compound stocks with various concentrations were added into 96-well plate. The plate was incubated at 37 °C for 5 min after addition of 20 μl reaction buffer containing NAMPT. […] The IC50 values were determined by non-linear fitting of the concentration-dependent curves with the four-parameter IC50 logistic equation."}, "[5]": {"tested_on": "primary mouse hepatocytes", "experiment": "Live cell fluorescence imaging in primary mouse hepatocytes (wild type vs NAMPT over expression transgenic)", "type": "cell-based", "conditions": "hepatocytes of NAMPT over expression transgenic vs wild type mice, 3 μM", "method": "Hepatocytes were isolated from mouse liver by the two-step collagenase perfusion method. […] For imaging experiment, 1 × 10^5 cells were plated in a 35-mm glass bottom dishes or 5 × 10^4 were plated in 48-well plate for cell viability assay in DMEM supplemented with 10% FBS and antibiotics, and kept under an atmosphere of 95% air and 5% CO2 at 37 °C.\nas §1"}},
  "note": "Entries after “also recorded” stand apart in the source; their conditions may differ. Like-named read-outs stand apart in the source and are kept apart here.",
  "data": [
    {"smiles": "CCCn1c(=O)c(-c2ccc(C(=O)NCc3cccnc3)cc2)nc2ccccc21", "note": "[M049-0244]", "values": [
      {"measurement": "Effect on Huh-7 cell viability", "setting": "[1]", "value": "Inhibitory effects"},
      {"measurement": "Cellular fluorescence in living HepG2 cells", "setting": "[2]; 30 minutes incubation, washed", "value": "fluorescence was obviously detected within the cell; also recorded: significantly stained living HepG2 cells"},
      {"measurement": "Cellular fluorescence after NAMPT knockdown (RNAi-NAMPT)", "setting": "[2]; HepG2, NAMPT siRNA vs nonspecific siRNA", "value": "significantly reduced the fluoresecence"},
      {"measurement": "Rescue of cell viability by exogenous NMN", "setting": "[3]; HepG2, 3 μM compound, NMN at 300 μM", "value": "totally rescued"},
      {"measurement": "IC50", "setting": "[3]", "value": "~2000", "unit": "nM"},
      {"measurement": "IC50", "setting": "[3]; Homo sapiens", "value": "1950 ± 170", "unit": "nM"},
      {"measurement": "Effect on HepG2 cell viability at 1 and 10 μM", "setting": "[3]; two concentrations (1 and 10 μM)", "value": "significant inhibition on HepG2 cell viability in a dose dependent manner"},
      {"measurement": "IC50", "setting": "[4]", "value": "170 ± 12", "unit": "nM"},
      {"measurement": "Cellular fluorescence intensity with NAMPT over expression", "setting": "[5]", "value": "increased the cellular fluorescence intensity"}
    ]}
  ]
}
